We go through two compounds from patent publication US4341768A, “Antibiotic compounds” (priority 1981, dated 1982).

Bridge positions count the residues as written; N and C are the ends. Square brackets hold non-standard residues; d marks the D form. Peptide text beside a SMILES is read from it. * marks the point of attachment. X1 = CCC(C)CCCCC(O)CC(=O)*; dDab = NCC[C@@H](N)C(=O)O; Dab = NCC[C@H](N)C(=O)O

For orientation: LD50 means the dose expected to kill half of the subjects tested. Low values mean a more toxic substance, high ones a less toxic substance.

One data set in a line: Acute toxicity in mice. The class given is in vivo. Particulars: for LD50: mouse, in vivo. On the procedure: The acute toxicities of Bu-2470 A and B1 were determined in mice by intravenous(iv) and subcutaneous (sc) routes. Colistin was tested comparatively as a reference compound.

As for `CCC(C)CCCCC(O)CC(=O)N[C@H](CCN)C(=O)N[C@H]1CCNC(=O)[C@H](CC(C)C)NC(=O)[C@H](CCN)NC(=O)[C@H](CCN)NC(=O)[C@H](CC(C)C)NC(=O)[C@@H](Cc2ccccc2)NC(=O)[C@H](CCN)NC1=O` (stereo partly drawn) [Bu-2470B1] (X1-[dDab][Dab][Dab][dF]L[Dab][Dab]L; lactam 2-C), the “Acute toxicity relative to colistin” value in “Acute toxicity in mice” (iv route) and in the data set “Acute toxicity in mice” (sc route) was “less toxic than colistin” throughout. Moreover, the 50% lethal dose (LD50) in “Acute toxicity in mice” (intravenous) stood at 35 mg/kg; in “Acute toxicity in mice” (sc, subcutaneous), 280 mg/kg.

As to `CC(C)C[C@@H]1NC(=O)[C@H](CCN)NC(=O)[C@H](CCN)NC(=O)[C@H](CC(C)C)NC(=O)[C@@H](Cc2ccccc2)NC(=O)[C@H](CCN)NC(=O)[C@@H](NC(=O)[C@H](N)CCN)CCNC1=O` [Bu-2470A] (H-[dDab][Dab][Dab][dF]L[Dab][Dab]L; lactam 2-C), the “Acute toxicity relative to colistin” value in the data set “Acute toxicity in mice” (iv route) is recorded as “less toxic than colistin”; in the data set “Acute toxicity in mice” (sc route), “more toxic”. For the same compound, the median lethal dose (LD50) in “Acute toxicity in mice” (intravenous) came out at 35 mg/kg; in “Acute toxicity in mice” (sc, subcutaneous), 56 mg/kg. Further, the “Solubility in aqueous lower alcohols, aqueous dioxane, dimethylsulfoxide and dimethylformamide” value in the data set “Solubility” (aqueous lower alcohols, aqueous dioxane, dimethylsulfoxide, dimethylformamide) is “readily soluble”. Also, the “Solubility in lower alcohols” value in the data set “Solubility” (lower alcohols) is reported as “slightly soluble”. In addition, in “Solubility” (other organic solvents), the “Solubility in other organic solvents” value is given as “practically insoluble”. In addition, the Solubility in water entry in “Solubility” (water over a wide pH range) was “readily soluble”.
